Reference: ChEMBL document CHEMBL1201862, “PubChem BioAssay data set” (2004)
The source made the active and inactive calls.

Columns and labels:
[1] = target: Cytochrome P450 3A4 (Homo sapiens, UniProt P08684);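 also: CYP3A4 tested as one member of a cytochrome P450 panel screen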
[2] = cytotoxicity in HEK-293T cells, dose response, cytotoxicity control for BCR NF-kB inhibitor project, luminescence, B-cell screen hits (AID 489021); assay type: functional, cell-based;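 also: HEK-293T cells carrying an NF-kB luciferase reporter; cells exposed to compound for about 14 hours before viability readout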
[3] = cytotoxicity toward NIH3T3 fibroblasts, dose response, counter-screen, cell-based, ATP luminescence, mouse fibroblasts (AID 2010); assay type: functional;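 also: cells exposed to compound for about 90 hours before reading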
[4] = inhibitors of intracellular T. cruzi replication, confirmation, NIH3T3 host cells, beta-gal luminescence (AID 2044); assay type: functional, cell-based;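 also: intracellular parasites grown in NIH/3T3 mouse fibroblasts as host cells; luminescent beta-galactosidase reporter signal from transgenic T. cruzi replicating inside host cells; inhibitors lower the luminescence signal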
[5] = target: Cytochrome P450 2C19 (Homo sapiens, UniProt P33261); experiment: Cytochrome panel assay with activity outcomes. Panel member name: p450-cyp2c19 Compounds with AC50 equal or less than 10 uM are considered active; assay type: functional; details: read-out: AC50
[6] = target: T1, Calpain-2 catalytic subunit (Sus scrofa, UniProt P43367); experiment: pig calpain II inhibitor potency, dose response, biochemical, fluorogenic peptide substrate (AID 1420); assay type: functional
T1 sequence (P43367 whole entry): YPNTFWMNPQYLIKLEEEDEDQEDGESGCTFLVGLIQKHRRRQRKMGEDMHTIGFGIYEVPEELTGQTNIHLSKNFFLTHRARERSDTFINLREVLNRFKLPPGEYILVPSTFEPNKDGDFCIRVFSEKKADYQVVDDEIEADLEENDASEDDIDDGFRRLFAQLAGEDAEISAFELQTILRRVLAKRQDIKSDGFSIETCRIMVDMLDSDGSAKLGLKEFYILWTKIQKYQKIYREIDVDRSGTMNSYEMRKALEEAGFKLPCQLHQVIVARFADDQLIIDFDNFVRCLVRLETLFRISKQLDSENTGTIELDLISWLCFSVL

[7] = Luminescence Cell-Based Dose Response HTS to Identify Inhibitors of 5'UTR Stem-Loop Driven Prion Protein mRNA Translation in H4 Neuroglioblastoma Cells. [Related pubchem assays: 1827 (Project Summary), 1813 (Primary HTS)]; assay type: functional
[8] = inhibitors of SNCA 5'UTR-driven reporter translation, confirmation, H4 neuroglioma cells, luminescence (AID 1988); assay type: functional, cell-based
[9] = inhibitors of firefly luciferase expression or activity, dose response, H4 neuroglioma cells, luminescence (AID 1990); assay type: functional, cell-based
[10] = tested on: BJ; experiment: cytotoxicity toward BJ-TERT-LT-ST fibroblasts, dose response, cell-based, RAS-independent, luminescence (AID 1935); assay type: functional; details: Homo sapiens;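 also: BJ fibroblasts immortalized with TERT plus LT and ST oncogenes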
[11] = tested on: BJ; experiment: cells; assay type: functional, cell-based; details: Homo sapiens
[12] = tested on: BJ; experiment: cytotoxicity toward BJ-TERT fibroblasts, dose response, cell-based, RAS-independent, luminescence (AID 1933); assay type: functional; details: Homo sapiens
[13] = cytotoxicity toward DRD oncogenic fibroblasts, dose response, cell-based, non-viral oncogenic, luminescence (AID 1934); assay type: functional; details: Homo sapiens
[14] = target: T2, Short transient receptor potential channel 4 (Mus musculus, UniProt Q9QUQ5); experiment: mouse TRPC4 channel inhibitors, dose response, cell-based, HEK293 TRPC4/mu-opioid, Fluo-4 calcium (AID 434942); assay type: functional;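 also: potency of inhibitors blocking the TRPC4 calcium response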
T2 sequence (Q9QUQ5 whole entry): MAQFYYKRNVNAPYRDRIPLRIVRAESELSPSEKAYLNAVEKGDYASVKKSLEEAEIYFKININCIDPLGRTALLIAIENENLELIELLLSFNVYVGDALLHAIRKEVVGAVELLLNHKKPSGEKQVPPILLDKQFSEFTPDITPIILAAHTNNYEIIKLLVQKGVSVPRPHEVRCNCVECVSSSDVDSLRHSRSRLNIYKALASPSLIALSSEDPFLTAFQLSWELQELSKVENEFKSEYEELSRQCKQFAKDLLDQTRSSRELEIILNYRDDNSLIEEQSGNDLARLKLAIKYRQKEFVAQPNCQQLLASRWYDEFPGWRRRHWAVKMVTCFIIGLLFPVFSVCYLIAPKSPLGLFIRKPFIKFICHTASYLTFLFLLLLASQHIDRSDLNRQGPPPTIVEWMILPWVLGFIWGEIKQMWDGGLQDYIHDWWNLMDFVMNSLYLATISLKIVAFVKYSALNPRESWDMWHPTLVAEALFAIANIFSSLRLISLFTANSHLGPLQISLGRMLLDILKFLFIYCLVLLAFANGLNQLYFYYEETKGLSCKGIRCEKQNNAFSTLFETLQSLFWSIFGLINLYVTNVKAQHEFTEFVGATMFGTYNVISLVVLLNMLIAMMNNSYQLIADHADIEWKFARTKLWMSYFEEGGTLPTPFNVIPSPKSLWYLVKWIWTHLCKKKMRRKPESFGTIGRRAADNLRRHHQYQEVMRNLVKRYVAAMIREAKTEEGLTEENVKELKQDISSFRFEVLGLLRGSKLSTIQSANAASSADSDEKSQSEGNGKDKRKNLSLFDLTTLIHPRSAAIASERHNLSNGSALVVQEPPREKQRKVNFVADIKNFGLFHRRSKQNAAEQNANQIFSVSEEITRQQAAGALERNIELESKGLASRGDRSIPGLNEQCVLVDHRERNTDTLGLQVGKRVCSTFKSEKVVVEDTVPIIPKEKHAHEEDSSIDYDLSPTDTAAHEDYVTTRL

[15] = target: Peroxisome proliferator-activated receptor gamma/Nuclear receptor coactivator 2 (Homo sapiens, UniProt P37231); assay type: functional;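 also: agonist potency for raising coactivator recruitment to the receptor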
Chain of Peroxisome proliferator-activated receptor gamma/Nuclear receptor coactivator 2 (P37231 whole entry): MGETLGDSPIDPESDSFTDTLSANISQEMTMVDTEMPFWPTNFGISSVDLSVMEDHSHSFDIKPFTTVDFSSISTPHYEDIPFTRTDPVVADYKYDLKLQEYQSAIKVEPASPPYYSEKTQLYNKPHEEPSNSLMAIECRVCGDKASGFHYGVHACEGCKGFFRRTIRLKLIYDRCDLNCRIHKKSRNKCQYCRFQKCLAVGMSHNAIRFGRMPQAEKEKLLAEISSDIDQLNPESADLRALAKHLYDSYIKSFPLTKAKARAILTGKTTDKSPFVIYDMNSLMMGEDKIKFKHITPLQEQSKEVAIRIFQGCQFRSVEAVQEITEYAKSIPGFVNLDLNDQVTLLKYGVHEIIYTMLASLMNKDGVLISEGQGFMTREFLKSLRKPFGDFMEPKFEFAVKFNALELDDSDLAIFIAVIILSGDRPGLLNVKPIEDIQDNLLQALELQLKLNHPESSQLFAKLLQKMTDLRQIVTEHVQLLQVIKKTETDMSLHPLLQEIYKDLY
Chain of Peroxisome proliferator-activated receptor gamma/Nuclear receptor coactivator 2 (Q15596 whole entry, further chain): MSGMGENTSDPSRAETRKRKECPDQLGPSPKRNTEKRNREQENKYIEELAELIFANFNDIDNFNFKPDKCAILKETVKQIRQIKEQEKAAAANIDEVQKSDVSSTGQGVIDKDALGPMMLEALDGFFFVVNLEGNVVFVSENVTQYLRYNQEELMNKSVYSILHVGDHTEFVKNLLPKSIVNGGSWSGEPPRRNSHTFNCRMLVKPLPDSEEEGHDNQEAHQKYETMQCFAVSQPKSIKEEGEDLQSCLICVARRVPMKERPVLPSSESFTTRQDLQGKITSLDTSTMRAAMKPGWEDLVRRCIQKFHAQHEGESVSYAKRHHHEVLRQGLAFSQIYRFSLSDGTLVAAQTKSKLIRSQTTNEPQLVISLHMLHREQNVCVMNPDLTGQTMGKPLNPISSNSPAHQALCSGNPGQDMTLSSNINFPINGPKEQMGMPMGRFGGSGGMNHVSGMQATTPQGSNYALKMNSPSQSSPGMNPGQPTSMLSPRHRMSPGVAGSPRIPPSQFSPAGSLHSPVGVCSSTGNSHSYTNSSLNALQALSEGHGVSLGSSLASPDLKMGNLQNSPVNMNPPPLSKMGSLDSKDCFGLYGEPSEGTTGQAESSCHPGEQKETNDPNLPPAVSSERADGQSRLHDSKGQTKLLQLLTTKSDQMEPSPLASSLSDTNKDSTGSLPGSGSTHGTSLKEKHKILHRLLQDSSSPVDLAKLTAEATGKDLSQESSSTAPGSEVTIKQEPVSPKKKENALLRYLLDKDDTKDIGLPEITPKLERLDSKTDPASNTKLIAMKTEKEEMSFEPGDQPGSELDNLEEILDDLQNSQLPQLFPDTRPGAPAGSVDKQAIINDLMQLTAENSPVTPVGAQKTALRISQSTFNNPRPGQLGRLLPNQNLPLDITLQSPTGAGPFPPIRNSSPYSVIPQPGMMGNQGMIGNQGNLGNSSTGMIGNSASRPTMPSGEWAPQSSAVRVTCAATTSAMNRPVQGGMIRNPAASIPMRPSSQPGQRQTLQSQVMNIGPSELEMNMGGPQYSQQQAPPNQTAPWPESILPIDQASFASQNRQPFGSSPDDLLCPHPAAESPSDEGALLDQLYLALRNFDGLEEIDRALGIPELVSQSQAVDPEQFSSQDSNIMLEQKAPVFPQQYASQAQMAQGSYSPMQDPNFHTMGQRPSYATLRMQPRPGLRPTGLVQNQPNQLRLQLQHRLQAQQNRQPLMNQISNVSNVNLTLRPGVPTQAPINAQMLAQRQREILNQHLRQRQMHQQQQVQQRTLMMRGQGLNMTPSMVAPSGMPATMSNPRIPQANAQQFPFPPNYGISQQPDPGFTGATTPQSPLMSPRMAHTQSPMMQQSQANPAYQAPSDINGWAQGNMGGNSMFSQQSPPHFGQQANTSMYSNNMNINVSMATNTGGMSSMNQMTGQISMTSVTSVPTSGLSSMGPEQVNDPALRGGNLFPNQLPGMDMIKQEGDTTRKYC

[16] = target: Peroxisome proliferator-activated receptor gamma/Nuclear receptor coactivator 3 (Homo sapiens, UniProt P37231); assay type: functional;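 also: agonist potency for raising coactivator recruitment to the receptor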
[17] = target: Peroxisome proliferator-activated receptor gamma/Nuclear receptor coactivator 1 (Homo sapiens, UniProt P37231); assay type: functional;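 also: agonist potency as compounds enhance coactivator SRC-1 recruitment to PPARgamma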
Chain of Peroxisome proliferator-activated receptor gamma/Nuclear receptor coactivator 1 (P37231 whole entry): as the sequence (P37231 whole entry) above
Chain of Peroxisome proliferator-activated receptor gamma/Nuclear receptor coactivator 1 (Q15788 whole entry, further chain): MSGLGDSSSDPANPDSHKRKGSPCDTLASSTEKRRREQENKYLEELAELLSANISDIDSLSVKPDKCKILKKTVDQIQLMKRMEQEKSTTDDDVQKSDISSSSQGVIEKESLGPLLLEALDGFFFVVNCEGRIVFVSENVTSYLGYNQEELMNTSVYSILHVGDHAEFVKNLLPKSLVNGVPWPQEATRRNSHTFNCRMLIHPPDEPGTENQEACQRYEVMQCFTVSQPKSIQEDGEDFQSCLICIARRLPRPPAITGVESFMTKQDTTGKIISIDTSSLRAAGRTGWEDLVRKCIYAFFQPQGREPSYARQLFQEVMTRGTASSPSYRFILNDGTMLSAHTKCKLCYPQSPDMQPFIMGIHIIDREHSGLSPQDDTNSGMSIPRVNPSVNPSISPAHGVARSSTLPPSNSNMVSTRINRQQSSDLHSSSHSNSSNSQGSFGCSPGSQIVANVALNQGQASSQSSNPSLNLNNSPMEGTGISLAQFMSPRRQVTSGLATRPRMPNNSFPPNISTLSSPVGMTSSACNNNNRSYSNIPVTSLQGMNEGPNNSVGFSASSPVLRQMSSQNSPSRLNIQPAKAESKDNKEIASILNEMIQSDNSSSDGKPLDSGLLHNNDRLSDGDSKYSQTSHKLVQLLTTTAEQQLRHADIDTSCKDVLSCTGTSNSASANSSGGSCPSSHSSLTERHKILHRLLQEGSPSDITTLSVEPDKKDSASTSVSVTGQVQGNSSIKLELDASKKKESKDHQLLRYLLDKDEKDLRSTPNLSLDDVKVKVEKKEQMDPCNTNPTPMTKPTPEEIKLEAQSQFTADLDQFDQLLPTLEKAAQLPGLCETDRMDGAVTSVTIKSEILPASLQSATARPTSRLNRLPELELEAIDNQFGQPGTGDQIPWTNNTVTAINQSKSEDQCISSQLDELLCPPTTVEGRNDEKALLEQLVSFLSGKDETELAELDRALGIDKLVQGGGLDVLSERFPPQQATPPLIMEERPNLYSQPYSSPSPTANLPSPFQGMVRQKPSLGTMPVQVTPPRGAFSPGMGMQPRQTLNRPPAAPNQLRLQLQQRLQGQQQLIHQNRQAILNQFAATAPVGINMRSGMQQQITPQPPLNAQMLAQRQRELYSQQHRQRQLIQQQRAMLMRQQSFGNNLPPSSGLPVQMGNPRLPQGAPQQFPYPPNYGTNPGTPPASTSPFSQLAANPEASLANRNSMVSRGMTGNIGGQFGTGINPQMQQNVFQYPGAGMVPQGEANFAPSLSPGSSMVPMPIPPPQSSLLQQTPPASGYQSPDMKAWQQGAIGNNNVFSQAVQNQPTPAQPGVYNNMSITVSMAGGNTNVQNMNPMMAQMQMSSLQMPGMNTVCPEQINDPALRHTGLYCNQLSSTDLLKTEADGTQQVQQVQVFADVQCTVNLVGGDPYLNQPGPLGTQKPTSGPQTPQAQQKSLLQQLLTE

[18] = cytotoxicity in HEK-293T cells, dose response, cytotoxicity control for TCR NF-kB inhibitor project, luminescence, T-cell screen hits (AID 489026); assay type: functional, cell-based;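 also: cells exposed to compound about 14 hours before the viability readout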
[19] = A cytotoxicity screen of small molecule inhibitors of the PhoP region in Salmonella typhi identified in the primary screen. [Related pubchem assays: 1850, 1864, 1985 ]; assay type: functional
[20] = THP-1 cell cytotoxicity, dose response, cytotoxicity control for Vif-APOBEC3G degradation inhibitor project, THP-1 cells (AID 1117359); assay type: functional; details: Human immunodeficiency virus 1, THP-1
[21] = target: T3, Rac GTPase-activating protein 1 (Homo sapiens, UniProt Q9H0H5); experiment: MgcRacGAP GTPase-activating activity inhibitors, confirmation, biochemical, ADP Hunter fluorescence, primary and confirmatory (AID 624330); assay type: functional
T3 sequence (Q9H0H5 whole entry): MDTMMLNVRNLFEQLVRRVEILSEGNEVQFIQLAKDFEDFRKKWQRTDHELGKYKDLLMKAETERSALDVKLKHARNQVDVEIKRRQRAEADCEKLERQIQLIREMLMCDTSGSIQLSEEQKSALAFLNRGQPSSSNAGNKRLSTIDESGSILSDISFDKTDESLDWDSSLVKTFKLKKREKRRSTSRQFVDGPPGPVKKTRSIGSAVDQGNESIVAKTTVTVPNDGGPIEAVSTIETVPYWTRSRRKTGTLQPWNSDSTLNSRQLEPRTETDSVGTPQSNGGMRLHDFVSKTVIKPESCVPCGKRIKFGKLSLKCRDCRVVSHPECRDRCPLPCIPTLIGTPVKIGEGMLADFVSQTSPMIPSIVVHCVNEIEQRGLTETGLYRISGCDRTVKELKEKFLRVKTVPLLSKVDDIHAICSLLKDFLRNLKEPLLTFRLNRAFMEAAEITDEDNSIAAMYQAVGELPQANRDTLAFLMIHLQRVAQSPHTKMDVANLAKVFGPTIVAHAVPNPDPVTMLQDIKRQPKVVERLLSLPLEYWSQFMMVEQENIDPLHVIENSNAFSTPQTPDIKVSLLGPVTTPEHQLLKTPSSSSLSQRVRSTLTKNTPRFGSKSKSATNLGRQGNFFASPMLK

[22] = microbe, parasite or virus in culture; assay type: functional; details: Mycobacterium tuberculosis
[23] = target: T4, Streptokinase A (Streptococcus pyogenes serotype M1, UniProt P10520); experiment: S. pyogenes streptokinase expression inhibitors, potency, dose response, plasminogen activation absorbance, OD405 (AID 1914); assay type: functional, Streptococcus pyogenes M1 GAS;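 also: secreted streptokinase activity via plasminogen activation per viability signal from cell pellet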
T4 sequence (P10520 whole entry): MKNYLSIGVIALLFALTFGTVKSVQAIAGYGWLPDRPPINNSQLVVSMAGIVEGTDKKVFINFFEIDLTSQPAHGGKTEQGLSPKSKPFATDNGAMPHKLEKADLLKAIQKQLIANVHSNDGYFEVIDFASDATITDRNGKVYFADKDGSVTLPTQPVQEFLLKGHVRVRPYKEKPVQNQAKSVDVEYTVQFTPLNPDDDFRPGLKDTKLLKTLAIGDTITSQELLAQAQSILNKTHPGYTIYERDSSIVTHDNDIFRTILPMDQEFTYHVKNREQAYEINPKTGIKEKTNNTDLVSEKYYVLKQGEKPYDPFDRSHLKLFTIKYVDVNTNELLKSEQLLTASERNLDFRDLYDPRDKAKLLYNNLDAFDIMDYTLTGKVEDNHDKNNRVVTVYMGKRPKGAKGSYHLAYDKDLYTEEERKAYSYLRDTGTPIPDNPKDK

[24] = tested on: HEK293; experiment: cells; assay type: functional, cell-based; details: Homo sapiens
[25] = tested on: HEK293; experiment: NOD1 signaling inhibitors, primary screen, cell-based, luminescence, uHTS (AID 1578); assay type: functional; details: Homo sapiens
[26] = tested on: HEK293; experiment: cells; assay type: functional, cell-based; details: Homo sapiens; remark: listed apart in the source
[27] = tested on: Streptococcus; experiment: Group A Streptococcus viability loss, dose response, counter-screen for streptokinase expression inhibitor project, luminescence, BacTiterGlo (AID 1915); assay type: functional, organism-based;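 also: potency for reduction of bacterial viability or growth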
[28] = tested on: HEK293; experiment: cells; assay type: functional, cell-based; details: Homo sapiens; remark: listed apart in the source
[29] = target: Nucleotide-binding oligomerization domain-containing protein 2 (Homo sapiens, UniProt Q9HC29); experiment: NOD2 signaling inhibitors, cell-based, luminescence, uHTS, HEK293 (AID 1566); assay type: functional
Chain of Nucleotide-binding oligomerization domain-containing protein 2 (Q9HC29 whole entry, the tested form may be a part): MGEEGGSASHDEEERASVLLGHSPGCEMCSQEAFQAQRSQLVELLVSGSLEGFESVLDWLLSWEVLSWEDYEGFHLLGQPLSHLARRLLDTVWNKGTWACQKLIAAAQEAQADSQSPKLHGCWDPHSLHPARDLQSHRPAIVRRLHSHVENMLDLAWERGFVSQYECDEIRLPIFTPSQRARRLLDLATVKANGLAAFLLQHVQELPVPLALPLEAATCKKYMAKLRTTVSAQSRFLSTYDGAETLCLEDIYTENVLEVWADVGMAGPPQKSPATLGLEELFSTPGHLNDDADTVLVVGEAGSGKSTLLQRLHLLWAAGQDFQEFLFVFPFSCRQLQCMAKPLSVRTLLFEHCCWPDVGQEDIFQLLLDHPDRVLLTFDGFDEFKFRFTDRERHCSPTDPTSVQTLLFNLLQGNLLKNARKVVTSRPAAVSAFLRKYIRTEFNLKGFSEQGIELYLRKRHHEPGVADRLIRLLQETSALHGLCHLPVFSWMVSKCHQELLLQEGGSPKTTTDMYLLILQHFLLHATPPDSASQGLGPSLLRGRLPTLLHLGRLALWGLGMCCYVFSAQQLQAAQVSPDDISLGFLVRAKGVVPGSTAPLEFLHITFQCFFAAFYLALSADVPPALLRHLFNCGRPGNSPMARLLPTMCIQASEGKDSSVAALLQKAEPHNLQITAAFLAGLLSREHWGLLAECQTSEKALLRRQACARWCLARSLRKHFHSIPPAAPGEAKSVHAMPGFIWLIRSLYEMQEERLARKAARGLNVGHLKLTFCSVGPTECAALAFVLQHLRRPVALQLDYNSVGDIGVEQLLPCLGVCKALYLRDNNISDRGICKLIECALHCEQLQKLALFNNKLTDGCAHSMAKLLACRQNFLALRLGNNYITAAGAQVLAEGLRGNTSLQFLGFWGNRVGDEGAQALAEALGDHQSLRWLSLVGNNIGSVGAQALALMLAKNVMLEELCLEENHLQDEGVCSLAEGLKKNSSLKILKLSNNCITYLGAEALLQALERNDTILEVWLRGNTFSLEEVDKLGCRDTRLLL

[30] = tested on: HEK293; experiment: NOD2 signaling inhibitors in MDP-stimulated cells, cell-based, uHTS, luminescence (AID 2001); assay type: functional; details: Homo sapiens
[31] = tested on: Streptococcus sp. 'group A'; experiment: growth inhibition of control SK(-) GAS strain, dose response, counter-screen for streptokinase expression inhibitor project, luminescence, kanamycin, BacTiterGlo, confirmation (AID 1900); assay type: functional, organism-based

## Cn1/c(=N\C(=O)CCl)sc2ccccc21
[1]
  AC50: 15.8 µM (inconclusive)
[2]
  IC50: > 80 µM (inactive)
[3]
  EC50: < 6 µM (inconclusive)
[4]
  EC50: 0.973 µM (active)
[5]
  AC50: 20 µM (inconclusive)

## CCCc1nc(SCC(=O)c2ccccc2)c2c(=O)n(C)c(=O)n(C)c2n1
[6]
  IC50: 7.89 µM (active)

## Cc1ccc(/C=C2\SC(=S)N(CCCC(=O)Nc3cc(C)on3)C2=O)cc1
[7]
  EC50: 51.7 µM (active)
[2]
  IC50: > 80 µM (inactive)
[8]
  EC50: 14.6 µM (active)
[9]
  EC50: 15.3 µM (active)

## CC(CCc1ccccc1)NC(=O)COC(=O)c1ccc(NC(=O)CC#N)cc1 (stereo not given)
[10]
  EC50: > 150 µM (inconclusive)
[11]
  EC50: > 150 µM (not active)
[12]
  EC50: > 150 µM (not active)
[13]
  EC50: > 150 µM (not active)

## S=C(Nc1ccccc1)Nc1cc(Cl)ccc1Oc1ccccc1
[14]
  EC50: 4.73 µM (active)

## CCCCC(CC)c1nnc(NC(=O)c2cccs2)s1 (stereo not given)
[15]
  EC50: > 79.4 µM (not active)
[16]
  EC50: > 79.4 µM (not active)
[17]
  EC50: > 79.4 µM (not active)
[6]
  IC50: 8.06 µM (not active)
[14]
  EC50: 5.31 µM (active)

## CC(=O)Nc1ccc(S(=O)(=O)N2c3ccc(F)cc3CCC2C)cc1 (stereo not given)
[18]
  IC50: > 80 µM (inactive)
[10]
  EC50: 16 µM (active)
[11]
  EC50: 92.3 µM (active)
[12]
  EC50: 13.5 µM (active)
[13]
  EC50: 16 µM (active)

## CCOCCCNc1ccc(N2C(=O)C3CCCCC3C2=O)cc1[N+](=O)[O-] (stereo not given)
[6]
  IC50: 9.18 µM (active)

## COC(=O)c1sccc1N=C(S)NCc1ccc(Cl)cc1
[19]
  EC50: > 50 µM (active)

## Cc1nc2nc(COc3ccccc3)nn2c(C)c1Cl
[19]
  EC50: > 50 µM (active)

## CCC(=O)N(Cc1cc2cc(OC)ccc2nc1O)c1ccc(C)cc1C
[19]
  EC50: > 50 µM (active)

## C=CCSc1nnc2n(-c3ccccc3OC)c(=O)c3c4c(sc3n12)CCC4
[14]
  EC50: 4.73 µM (active)

## N=c1sc2c(n1Cc1ccccc1)CCCC2
[19]
  EC50: > 50 µM (active)

## COc1ccc2cc(C(=O)Nc3ccc(O)cc3)sc(=O)c2c1OC
[20]
  CC50: 25 µM (active)
[21]
  IC50: 24.8 µM (active)

## CNC(=O)CSc1nc2nn(-c3ccccc3)c(=O)c-2c2n1CCCCC2
[2]
  IC50: > 80 µM (inactive)

## O=C(COc1ccc(F)cc1)c1c(O)cc(O)cc1O
[14]
  EC50: 3.35 µM (active)

## Cc1cc(C)c(NC(=O)COC(=O)Cc2ccsc2)c(C)c1
[6]
  IC50: > 50 µM (not active)

## Cc1c(CN2CCC(CO)(Cc3cccc(C(F)(F)F)c3)CC2)c2ccccc2n1C
[3]
  EC50: > 60 µM (not active)
[22]
  CC50: 18.1 µM (active)
[4]
  EC50: 0.969 µM (active)
[20]
  CC50: 9.2 µM (active)

## CN(C)C=O.N#Cc1ccc(Cl)cc1NC(=O)CSc1nc(O)c2c(C(F)(F)F)cc(-c3cccs3)nc2n1
[23]
  EC50: > 150 µM (not active)
[24]
  IC50: 9.55 µM (active)
[25]
  EC50: 5.63 µM (active)
[26]
  IC50: > 20 µM (inactive)
[27]
  EC50: > 150 µM (not active)
[28]
  IC50: > 20 µM (inactive)
[29]
  EC50: 8.42 µM (active)
[30]
  IC50: 6.22 µM (inactive)
[31]
  EC50: 7.34 µM (active)

## N=c1ccn2c(n1)O[C@H]1[C@H](O)[C@@H](CO)O[C@H]12
[2]
  IC50: > 80 µM (inactive)
